# Reference: patent publication US20230057891A1, “EGFR INHIBITORS” (Hoffmann-La Roche Inc., priority 2019, published 2023)
# pIC50: −log10 of the molar value.
# Molecular target: T1, EGFR TMLRCS (T790M/L858R/C797S) (Homo sapiens, UniProt P00533, C797S/L858R/T790M)
# T1 construct: host or cells: BaF3-TMLRCS cell line
# Test: HTRF Phospho EGFR TMLRCS assay (cellular), BaF3-TMLRCS cells
# Assay type: cell-based
# Settings: BaF3-TMLRCS cell line, 4 hours incubation
# Protocol: HTRF Phospho EGFR TMLRCS Assay (Cellular)
# BaF3-TMLRCS cell line were obtained from Crownbio (San Diego, Calif., USA). Cells were maintained at 37° C., 5% CO2 in RPMI ATCC (Gibco 31870)+2 mM Glutamine+0.5 μg/ml Puromycin supplemented with 10% fetal bovine serum (FBS) (Gibco).
# Cells are transferred as above to Greiner Bio-One, Nr. 784-08 micro-titerplate at 20000 cells/well in 12.5 μl of growth medium/well after the plates had been pre-filled with 12.5 nl of DMSO solutions of the to be tested compound (in dose response) or DMSO only. After spinning the plates at 300×g for 30 seconds the cells were incubated for 4 hours at 37 C, 5% CO2, 95% humidity. The cells were lysed by adding to the compound mix 4 µl/well of the supplemented lysis buffer (Cis-bio, Phospho-EGFR HTRF kit, 64EG1PEH), followed by incubation for 30 min at room temperature with shaking (400 rpm). The plates were then frozen and stored overnight at −80 C. On the next day and after thawing the plates, 4 μl of a mixture of anti-Phospho-EGFR Cryptate and of anti-Phospho-EGFR-d2 antibody solutions prepared in the supplied detection buffer was added to each well. The lidded plates were then incubated for 4 h at room temperature before reading the fluorescence emission at 616 and 665 nm using an Envision reader (Perkin Elmer). Data was analyzed in similar fashion as above using the normalized ratio of the 665 to 616 signals multiplied by 10000.
# T1 sequence (P00533 25-1210 T790M/C797S/L858R): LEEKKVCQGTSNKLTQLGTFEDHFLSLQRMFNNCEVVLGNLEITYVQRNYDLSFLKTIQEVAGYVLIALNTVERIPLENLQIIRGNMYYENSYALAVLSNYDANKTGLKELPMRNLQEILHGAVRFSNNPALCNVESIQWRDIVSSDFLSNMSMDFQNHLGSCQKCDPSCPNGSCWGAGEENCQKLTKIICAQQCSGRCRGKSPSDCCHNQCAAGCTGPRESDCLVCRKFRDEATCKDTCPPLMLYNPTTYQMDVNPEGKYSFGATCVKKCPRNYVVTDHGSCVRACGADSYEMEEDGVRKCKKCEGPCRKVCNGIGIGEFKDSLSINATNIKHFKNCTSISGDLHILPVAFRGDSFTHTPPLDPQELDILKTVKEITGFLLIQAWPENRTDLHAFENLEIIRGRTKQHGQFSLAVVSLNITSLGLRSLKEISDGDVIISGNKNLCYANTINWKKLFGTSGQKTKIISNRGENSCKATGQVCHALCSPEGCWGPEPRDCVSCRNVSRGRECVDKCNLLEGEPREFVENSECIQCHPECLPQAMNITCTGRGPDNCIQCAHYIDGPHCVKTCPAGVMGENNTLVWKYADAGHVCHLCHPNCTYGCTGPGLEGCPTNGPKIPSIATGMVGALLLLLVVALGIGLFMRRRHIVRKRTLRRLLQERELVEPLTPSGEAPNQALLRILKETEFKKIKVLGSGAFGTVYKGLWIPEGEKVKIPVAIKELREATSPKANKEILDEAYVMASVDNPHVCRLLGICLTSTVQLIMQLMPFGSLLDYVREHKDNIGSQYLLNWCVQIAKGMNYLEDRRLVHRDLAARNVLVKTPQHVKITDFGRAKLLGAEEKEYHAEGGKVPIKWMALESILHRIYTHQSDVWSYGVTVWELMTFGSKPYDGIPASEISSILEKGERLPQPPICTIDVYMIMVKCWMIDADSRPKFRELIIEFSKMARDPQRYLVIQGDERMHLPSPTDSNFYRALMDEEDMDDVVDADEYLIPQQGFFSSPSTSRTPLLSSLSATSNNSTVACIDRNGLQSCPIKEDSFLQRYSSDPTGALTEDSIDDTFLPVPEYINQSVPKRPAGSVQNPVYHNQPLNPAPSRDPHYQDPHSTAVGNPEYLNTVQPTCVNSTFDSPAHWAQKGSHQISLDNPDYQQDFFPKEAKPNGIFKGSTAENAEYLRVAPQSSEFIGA
row,Structure (SMILES),pIC50
1,"O=C(Nc1nccs1)C(c1ncn2c1CCC2)N1Cc2c(F)cc(-c3ccc(C45CC(CN6CCCC6)(C4)C5)cc3)cc2C1=O (racemic) [Example 5, (2RS)-2-(6,7-Dihydro-5H-pyrrolo[1,2-c]imidazol-1-yl)-2-[4-fluoro-1-oxo-6-[4-[3-(pyrrolidin-1-ylmethyl)-1-bicyclo[1.1.1]pentanyl]phenyl]isoindolin-2-yl]-N-thiazol-2-yl-acetamide]",7.89
2,"O=C(Nc1nccs1)C(c1ncn2c1CCC2)N1Cc2c(F)cc(-c3ccc(C45CC(CN6CCC(CO)CC6)(C4)C5)cc3)cc2C1=O (racemic) [Example 2, (2RS)-2-(6,7-Dihydro-5H-pyrrolo[1,2-c]imidazol-1-yl)-2-[4-fluoro-6-[4-[3-[[4-(hydroxymethyl)-1-piperidyl]methyl]-1-bicyclo[1.1.1]pentanyl]phenyl]-1-oxo-isoindolin-2-yl]-N-thiazol-2-yl-acetamide]",8.40
3,"O=C(Nc1nccs1)C(c1ncn2c1CCC2)N1Cc2c(F)cc(-c3ccc(C45CC(CN6CCCC(O)CC6)(C4)C5)cc3)cc2C1=O (racemic) [Example 6, (2RS)-2-(6,7-Dihydro-5H-pyrrolo[1,2-c]imidazol-1-yl)-2-[4-fluoro-6-[4-[3-[[(4RS)-4-hydroxyazepan-1-yl]methyl]-1-bicyclo[1.1.1]pentanyl]phenyl]-1-oxo-isoindolin-2-yl]-N-thiazol-2-yl-acetamide]",8.10
4,"O=C(Nc1nccs1)C(c1ncn2c1CCC2)N1Cc2c(F)cc(-c3ccc(C45CC(CN6CCC(O)CC6)(C4)C5)cc3)cc2C1=O (racemic) [Example 4, (2RS)-2-(6,7-Dihydro-5H-pyrrolo[1,2-c]imidazol-1-yl)-2-[4-fluoro-6-[4-[3-[(4-hydroxy-1-piperidyl)methyl]-1-bicyclo[1.1.1]pentanyl]phenyl]-1-oxo-isoindolin-2-yl]-N-thiazol-2-yl-acetamide]",7.89

# Continued by rising pIC50, values first:
row,pIC50,Structure (SMILES)
1,8.00,"CN(C)CC12CC(c3ccc(-c4cc(F)c5c(c4)C(=O)N(C(C(=O)Nc4nccs4)c4ncn6c4CCC6)C5)cc3)(C1)C2 (racemic) [Example 3, (2RS)-2-(6,7-Dihydro-5H-pyrrolo[1,2-c]imidazol-1-yl)-2-[6-[4-[3-[(dimethylamino)methyl]-1-bicyclo[1.1.1]pentanyl]phenyl]-4-fluoro-1-oxo-isoindolin-2-yl]-N-thiazol-2-yl-acetamide]"
2,8.05,"O=C(Nc1nccs1)C(c1ncn2c1CCC2)N1Cc2c(Cl)cc(-c3ccc(C45CC(CN6CCC(CO)CC6)(C4)C5)cc3)cc2C1=O (racemic) [Example 1, (2RS)-2-(6,7-Dihydro-5H-pyrrolo[1,2-c]imidazol-1-yl)-2-[4-chloro-6-[4-[3-[[4-(hydroxymethyl)-1-piperidyl]methyl]-1-bicyclo[1.1.1]pentanyl]phenyl]-1-oxo-isoindolin-2-yl]-N-thiazol-2-yl-acetamide]"
3,8.40,"O=C(Nc1nccs1)C(c1ncn2c1CCC2)N1Cc2c(F)cc(-c3ccc(C45CC(CN6CCC(CO)CC6)(C4)C5)cc3)c(F)c2C1=O (racemic) [Example 7, (2RS)-2-[4,7-Difluoro-6-[4-[3-[[4-(hydroxymethyl)-1-piperidyl]methyl]-1-bicyclo[1.1.1]pentanyl]phenyl]-1-oxo-isoindolin-2-yl]-2-(6,7-dihydro-5H-pyrrolo[1,2-c]imidazol-1-yl)-N-thiazol-2-yl-acetamide]"
